Calls of active or inactive are those of the source. The rule behind the calls is not given here.
Assays:
[1] = Selectivity index, ratio of CC50 for human MT4 cells to EC50 for wild type HIV-1 IIIB infected in human MT4 cells; format: toxicity, cell-based; conditions: read-out: Selectivity Index
[2] = tested on: Human immunodeficiency virus 1; assay: Anti-HIV activity against wild type HIV-1 IIIB infected in human MT4 cells assessed as protection against virus-induced cytopathic effect incubated for 5 days by spectrophotometric based MTT assay; format: functional, organism-based; conditions: Human immunodeficiency virus 1, IIIB, MT4, 120 h
[3] = Selectivity index, ratio of CC50 for human MT4 cells to EC50 for HIV-2 ROD infected in human MT-4 cells; format: toxicity, cell-based; conditions: read-out: Selectivity Index
MT4 = assay: Cytotoxicity against human MT4 cells assessed as reduction in cell viability incubated for 5 days by spectrophotometric based MTT assay; format: functional; conditions: MT4, 120 h, time 5 day
[4] = Selectivity ratio of EC50 for wild type HIV-1 IIIB infected in human MT4 cells to EC50 for HIV-2 ROD infected in human MT-4 cells assessed as protection against virus-induced cytopathic effect incubated for 5 days by spectrophotometric based MTT assay; format: functional; conditions: time 5 day
[5] = tested on: Human immunodeficiency virus 2; assay: Anti-HIV activity against HIV-2 ROD infected in human MT-4 cells assessed as protection against virus-induced cytopathic effect incubated for 5 days by spectrophotometric based MTT assay; format: functional, organism-based; conditions: Human immunodeficiency virus 2, ROD, MT4, 120 h
[6] = biological target: Structural capsid protein (Human immunodeficiency virus 1) (UniProt Q76129); assay: Binding affinity to HIV-1 hexameric capsid protein assessed as reduction in NUP153 binding to capsid protein by competition assay based SPR analysis; conditions: filed as modulator
Chain of Structural capsid protein (Human immunodeficiency virus 1) (Q76129 as listed by the source): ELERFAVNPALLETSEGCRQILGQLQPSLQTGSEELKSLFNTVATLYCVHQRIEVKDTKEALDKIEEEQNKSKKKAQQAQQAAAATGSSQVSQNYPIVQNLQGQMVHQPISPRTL

[7] = biological target: T1, Structural capsid protein (Human immunodeficiency virus 1, UniProt Q76129); assay: Binding affinity to monomeric HIV-1 NL4.3 capsid protein assessed as dissociation constant by SPR assay
T1 sequence (Q76129 whole entry): as the sequence (Q76129 as listed by the source) above

[8] = tested on: Human immunodeficiency virus 1; assay: Antiviral activity against pseudotyped HIV-1 expressing luciferase-reporter transfected in HEK293T cells assessed as viral inhibition at early stage incubated for 48 hrs by Single-round infection assay; format: functional, organism-based
[9] = tested on: Human immunodeficiency virus 1; assay: Antiviral activity against pseudotyped HIV-1 expressing luciferase-reporter transfected in HEK293T cells assessed as viral inhibition at late stage incubated for 48 hrs by Single-round infection assay; format: functional, organism-based
[10] = biological target: T1, Structural capsid protein; assay: Binding affinity to hexameric HIV-1 NL4.3 capsid protein assessed as dissociation constant by SPR assay
[11] = Metabolic stability in human liver microsomes assessed as intrinsic clearance at 1 uM incubated for 60 mins by LC-MS/MS analysis; format: ADME, Microsome; conditions: read-out: CLH
[12] = biological target: Structural capsid protein (Human immunodeficiency virus 1) (UniProt Q76129); assay: Binding affinity to HIV-1 hexameric capsid protein assessed as reduction in CPSF6 binding to capsid protein by competition assay based SPR analysis; conditions: filed as modulator
[13] = biological target: Human immunodeficiency virus type 1 reverse transcriptase (Human immunodeficiency virus 1) (UniProt Q72547); assay: Inhibition of HIV1 reverse transcriptase at 24 nM incubated for 1 hr by ELISA analysis
[14] = tested on: Human immunodeficiency virus 1; assay: Antiviral activity against pseudotyped HIV-1 expressing luciferase-reporter transfected in HEK293T cells assessed as increase in p24 level in progeny virions by ELISA analysis; format: functional, organism-based
[15] = Metabolic stability in human liver microsomes assessed as half life at 1 uM incubated for 60 mins by LC-MS/MS analysis; format: ADME, Microsome
[16] = biological target: Structural capsid protein (Human immunodeficiency virus 1) (UniProt Q76129); assay: Binding affinity to hexameric HIV-1 NL4.3 capsid protein assessed as residence time by SPR assay; conditions: filed as modulator
[17] = biological target: Structural capsid protein (Human immunodeficiency virus 1) (UniProt Q76129); assay: Binding affinity to monomeric HIV-1 NL4.3 capsid protein assessed as dissociation rate (Koff) by SPR assay; conditions: filed as modulator
[18] = biological target: Structural capsid protein (Human immunodeficiency virus 1) (UniProt Q76129); assay: Binding affinity to hexameric HIV-1 NL4.3 capsid protein assessed as dissociation rate (Koff) by SPR assay; conditions: filed as modulator
[19] = biological target: Structural capsid protein (Human immunodeficiency virus 1) (UniProt Q76129); assay: Binding affinity to monomeric HIV-1 NL4.3 capsid protein assessed as residence time by SPR assay; conditions: filed as modulator
[20] = biological target: Human immunodeficiency virus type 1 reverse transcriptase (Human immunodeficiency virus 1) (UniProt Q72547); assay: Inhibition of HIV1 reverse transcriptase at 20 nM incubated for 1 hr by ELISA analysis
[21] = biological target: Human immunodeficiency virus type 1 reverse transcriptase (Human immunodeficiency virus 1) (UniProt Q72547); assay: Inhibition of HIV1 reverse transcriptase at 13 nM incubated for 1 hr by ELISA analysis
[22] = biological target: Human immunodeficiency virus type 1 reverse transcriptase (Human immunodeficiency virus 1) (UniProt Q72547); conditions: dose 10.0 nM, time 1.0 hrs

Row | Compound | selectivity ratio [1] | EC50 [2] [nM] | selectivity ratio [3] | CC50 (MT4) [nM] | Ratio EC50 [4] | EC50 [5] [nM] | further results
1 | CN(C(=O)[C@H](Cc1cc(F)cc(F)c1)NC(=O)Cc1c[nH]c2cc(Cl)ccc12)c1ccc2scnc2c1 | 669 | 37.1 | 197 | 24800 | 0.29 | 126 | –
2 | CN(C(=O)[C@H](Cc1cc(F)cc(F)c1)NC(=O)Cc1c[nH]c2ccc(N)cc12)c1ccc2scnc2c1 | 16100 | 11.9 | 831 | 192000 | 0.05 | 231 | Activity [6]: Active; Kd [7]: 196 nM; Activity [8]: Active; Activity [9]: Active; Kd [10]: 94.5 nM; CLint scaled at 1 µM [11]: 20.2 mL/min/kg; Activity [12]: Active; inhibition [13]: inactive; Activity [14]: inactive; half-life at 1 µM [15]: 1.14 h
3 | Cc1[nH]c2ccccc2c1CC(=O)N[C@@H](Cc1cc(F)cc(F)c1)C(=O)N(C)c1ccc2scnc2c1 | 108 | 270 | 32.8 | 29100 | 0.3 | 887 | –
4 | COC(=O)c1c(C)ccn1CC(=O)N[C@@H](Cc1cc(F)cc(F)c1)C(=O)N(C)c1ccc2scnc2c1 | 124 | 1030 | 66.3 | 127000 | 0.53 | 1920 | –
5 | COc1ccc(N(C)C(=O)[C@H](Cc2ccccc2)NC(=O)CN2CCN(S(=O)(=O)c3ccc(N)cc3)CC2=O)cc1 | – | – | – | 114000 | – | 13.6 | TIME [16]: 0.0138 h; K [17]: 2.34 10^-1/s; K [18]: 2.01 10^-2/s; CLint scaled at 1 µM [11]: 344 mL/min/kg; TIME [19]: 0.00118 h
6 | CN(C(=O)[C@H](Cc1cc(F)cc(F)c1)NC(=O)Cc1c[nH]c2cccc(F)c12)c1ccc2scnc2c1 | 439 | 53.6 | 47.3 | 23500 | 0.11 | 498 | –
7 | Cc1cc(C)n(CC(=O)N[C@@H](Cc2cc(F)cc(F)c2)C(=O)N(C)c2ccc3scnc3c2)n1 | > 962 | 269 | > 84.5 | > 259000 | 0.09 | 3060 | –
8 | Cc1ccc2[nH]cc(CC(=O)N[C@@H](Cc3cc(F)cc(F)c3)C(=O)N(C)c3ccc4scnc4c3)c2c1 | 621 | 42.4 | 137 | 26400 | 0.22 | 193 | –
9 | CN(C(=O)[C@H](Cc1cc(F)cc(F)c1)NC(=O)Cc1c[nH]c2ccc(Br)cc12)c1ccc2scnc2c1 | 718 | 32.6 | 137 | 23400 | 0.19 | 171 | –
10 | CN(C(=O)[C@H](Cc1cc(F)cc(F)c1)NC(=O)Cc1c[nH]c2cc(Br)ccc12)c1ccc2scnc2c1 | 848 | 27.4 | 339 | 23300 | 0.4 | 68.6 | –
11 | COc1ccc2c(CC(=O)N[C@@H](Cc3cc(F)cc(F)c3)C(=O)N(C)c3ccc4scnc4c3)c[nH]c2c1 | 300 | 127 | 170 | 38200 | 0.57 | 224 | –
12 | CN(C(=O)[C@H](Cc1cc(F)cc(F)c1)NC(=O)Cc1c[nH]c2cc(F)ccc12)c1ccc2scnc2c1 | 1500 | 16.8 | 153 | 25200 | 0.1 | 165 | –
13 | CN(C(=O)[C@H](Cc1cc(F)cc(F)c1)NC(=O)C(=O)c1c[nH]c2ccccc12)c1ccc2scnc2c1 | < 0.01 | > 23600 | < 0.01 | 23600 | – | > 23600 | –
14 | Cc1[nH]c2ccc(F)cc2c1CC(=O)N[C@@H](Cc1cc(F)cc(F)c1)C(=O)N(C)c1ccc2scnc2c1 | 147 | 170 | 33.4 | 24900 | 0.23 | 745 | –
15 | CN(C(=O)[C@H](Cc1cc(F)cc(F)c1)NC(=O)Cc1c[nH]c2ccc(Cl)cc12)c1ccc2scnc2c1 | 1450 | 16.3 | 150 | 23700 | 0.1 | 158 | –
16 | Cc1[nH]c2ccc(Cl)cc2c1CC(=O)N[C@@H](Cc1cc(F)cc(F)c1)C(=O)N(C)c1ccc2scnc2c1 | 133 | 199 | 41.7 | 26400 | 0.31 | 633 | –
17 | CN(C(=O)[C@H](Cc1cc(F)cc(F)c1)NC(=O)Cc1c[nH]c2cccc(Cl)c12)c1ccc2scnc2c1 | 132 | 186 | 12.7 | 24400 | 0.1 | 1930 | –
18 | COc1ccc2[nH]cc(CC(=O)N[C@@H](Cc3cc(F)cc(F)c3)C(=O)N(C)c3ccc4scnc4c3)c2c1 | 3260 | 22.4 | 460 | 73200 | 0.14 | 159 | –
19 | COc1ccc2[nH]c(C)c(CC(=O)N[C@@H](Cc3cc(F)cc(F)c3)C(=O)N(C)c3ccc4scnc4c3)c2c1 | 900 | 32.8 | 81 | 29500 | 0.09 | 365 | –
20 | CN(C(=O)[C@H](Cc1cc(F)cc(F)c1)NC(=O)Cc1c[nH]c2ccc(F)cc12)c1ccc2scnc2c1 | 2510 | 10.1 | 177 | 25500 | 0.07 | 144 | –
21 | Cc1cc(C(F)(F)F)nn1CC(=O)N[C@@H](Cc1cc(F)cc(F)c1)C(=O)N(C)c1ccc2scnc2c1 | 543 | 223 | 133 | 121000 | 0.24 | 912 | –
22 | CN(C(=O)[C@H](Cc1cc(F)cc(F)c1)NC(=O)Cc1c[nH]c2cc(F)c(F)cc12)c1ccc2scnc2c1 | 2410 | 9.81 | 116 | 23600 | 0.05 | 204 | Activity [6]: Active; Kd [7]: 267 nM; Activity [8]: Active; Activity [9]: Active; Kd [10]: 305 nM; inhibition [20]: inactive; Activity [12]: Active; Activity [14]: Active
23 | CN(C(=O)[C@H](Cc1cc(F)cc(F)c1)NC(=O)Cc1c[nH]c2ccc([N+](=O)[O-])cc12)c1ccc2scnc2c1 | 4460 | 6.37 | 220 | 28400 | 0.05 | 129 | Activity [6]: Active; Kd [7]: 153 nM; Activity [8]: Active; Activity [9]: Active; Kd [10]: 87.9 nM; Activity [12]: Active; Activity [14]: Active; inhibition [21]: inactive
24 | CN(C(=O)[C@H](Cc1cc(F)cc(F)c1)NC(=O)Cc1c[nH]c2cccc(Br)c12)c1ccc2scnc2c1 | 133 | 166 | 20.5 | 22200 | 0.15 | 1080 | –
25 | CN(C(=O)[C@H](Cc1cc(F)cc(F)c1)NC(=O)Cc1c[nH]c2ccccc12)c1ccc2scnc2c1 | 842 | 39.6 | 153 | 33400 | 0.18 | 218 | –
26 | Cc1cc(/C=C/C#N)cc(C)c1Nc1ccnc(Nc2ccc(C#N)cc2)n1 | – | – | – | – | – | – | inhibition [22]: Active
